The target of assay [1] is T1, chitin synthase 2 of Saccharomyces cerevisiae ECY38-38A(pAS6) (Saccharomyces cerevisiae, UniProt P14180).
T1 construct: made in house; host or cells: Saccharomyces cerevisiae ECY38-38A (chs1-23 chs2::LEU2 cal1/csd2) carrying plasmid pAS6, grown in galactose medium; 130,000 x g membrane pellet
The assay is described as follows: In vitro enzyme assay for chitin synthase 2 of Saccharomyces cerevisiae (enzyme 2). It is filed as biochemical. The settings on record: relative to polyoxin D (50% inhibitory activity = value 5). The method, boiled down:
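Values are scores: 5 means 50% inhibition at the same concentration as polyoxin D, lower scores 2- to 16-fold higher concentration, higher scores ½ to ⅛. Radiolabel from 1.1 mM UDP-[14C]-GlcNAc was incorporated into TCA-insoluble chitin over 90 min at 30 °C (pH 7.5 Tris, 2 mM Co2+). The enzyme was a trypsin-activated membrane fraction from CHS2-only S. cerevisiae ECY38-38A(pAS6).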

The test system of assay [2] is Candida tropicalis ATCC 13803. The assay can be described thus: In vitro antifungal activity (MIC), NCCLS method. As to conditions: 48 hours. It is filed as cell-based. The gist of the method: (§1)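 Broth microdilution per NCCLS: two-fold serial dilutions of test compound inoculated with fungal suspension at a final 5×10^2 to 2.5×10^3 cell/mL. Strains other than Cryptococcus neoformans were incubated 48 hours before MIC reading.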

Assay [3] deals with Candida parapsilosis ATCC 34136. The assay is described as follows: In vitro antifungal activity (MIC), NCCLS method. The settings on record: Candida parapsilosis ATCC 34136; 48 hours. Type of assay: cell-based. The gist of the method: as §1
Assay [4] deals with Aspergillus flavus ATCC 64025. The assay can be described thus: In vitro antifungal activity (MIC), NCCLS method. As to conditions: 48 hours. Type of assay: cell-based. The method, boiled down:
(§2)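 Two-fold dilutions, final inoculum 5×10^2–2.5×10^3 cell/mL, NCCLS protocol; 48 h culture for these strains. MIC = minimum inhibitory concentration.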

Assay [5] deals with Candida albicans A207 (clinical isolate). The assay is described as follows: In vitro antifungal activity (MIC), NCCLS method. Type of assay: cell-based. The settings on record: 48 hours. The gist of the method:
as §1

The subject of assay [6] is Aspergillus terreus ATCC 46941. The assay is described as follows: In vitro antifungal activity (MIC), NCCLS method. It is filed as cell-based. As to conditions: 48 hours. The method, boiled down:
as §2

The test system of assay [7] is Candida lusitaniae ATCC 42720. The assay is described as follows: In vitro antifungal activity (MIC), NCCLS method. It is filed as cell-based. The settings on record: 48 hours. The gist of the method: as §1
In assay [8] the test system is Cryptococcus neoformans ATCC 36556. The assay can be described thus: In vitro antifungal activity (MIC), NCCLS method. Type of assay: cell-based. As to conditions: RPMI 1640 medium, 72 hours. The gist of the method: as §1
Assay [9] relates to Mucor ramosissimus ATCC 90286. The assay is described as follows: In vitro antifungal activity (MIC), NCCLS method. It is filed as cell-based. The settings on record: 48 hours. The gist of the method:
as §1

For assay [10], the system named is Aspergillus fumigatus ATCC 16424. The assay can be described thus: In vitro antifungal activity (MIC), NCCLS method. It is filed as cell-based. The settings on record: 48 hours. The gist of the method:
as §2

Assay [11] concerns Candida albicans ATCC 10231. The assay can be described thus: In vitro antifungal activity (MIC), NCCLS method. Type of assay: cell-based. As to conditions: 48 hours. The gist of the method:
as §1

Assay [12] concerns Candida glabrata ATCC 48435. The assay can be described thus: In vitro antifungal activity (MIC), NCCLS method. As to conditions: Candida glabrata ATCC 48435; 48 hours. Type of assay: cell-based. The method, boiled down:
as §1

A further assay relates to Candida krusei ATCC 6258. The assay can be described thus: In vitro antifungal activity (MIC), NCCLS method. Type of assay: cell-based. The settings on record: 48 hours. The method, boiled down: as §1
Assay [13] addresses T2, chitin synthase 1 of Candida albicans chs2 Δ chs 3 Δ (Candida albicans, UniProt P23316).
T2 construct: Crude enzyme was prepared using the Candida albicans chs2 Δ chs 3 Δ mutant; endogenous in cells; host or cells: Candida albicans chs2Δ/chs2Δ chs3Δ/chs3Δ mutant; 130,000 x g membrane pellet
The assay can be described thus: In vitro enzyme assay for chitin synthase 1 of Candida albicans (enzyme 1). Type of assay: biochemical. The settings on record: relative to polyoxin D (50% inhibitory activity = value 5). The method, boiled down:
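Trypsin-activated crude membrane chitin synthase 1 from C. albicans chs2Δ chs3Δ was incubated 90 min at 30 °C with 1.1 mM UDP-[14C]GlcNAc and 2 mM cobalt acetate in Tris-HCl pH 7.5. Filtered TCA precipitate was counted by scintillation; values are scores 1–8 against polyoxin D (5 = same concentration).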

T2 sequence (P23316 whole entry, stated change not applied): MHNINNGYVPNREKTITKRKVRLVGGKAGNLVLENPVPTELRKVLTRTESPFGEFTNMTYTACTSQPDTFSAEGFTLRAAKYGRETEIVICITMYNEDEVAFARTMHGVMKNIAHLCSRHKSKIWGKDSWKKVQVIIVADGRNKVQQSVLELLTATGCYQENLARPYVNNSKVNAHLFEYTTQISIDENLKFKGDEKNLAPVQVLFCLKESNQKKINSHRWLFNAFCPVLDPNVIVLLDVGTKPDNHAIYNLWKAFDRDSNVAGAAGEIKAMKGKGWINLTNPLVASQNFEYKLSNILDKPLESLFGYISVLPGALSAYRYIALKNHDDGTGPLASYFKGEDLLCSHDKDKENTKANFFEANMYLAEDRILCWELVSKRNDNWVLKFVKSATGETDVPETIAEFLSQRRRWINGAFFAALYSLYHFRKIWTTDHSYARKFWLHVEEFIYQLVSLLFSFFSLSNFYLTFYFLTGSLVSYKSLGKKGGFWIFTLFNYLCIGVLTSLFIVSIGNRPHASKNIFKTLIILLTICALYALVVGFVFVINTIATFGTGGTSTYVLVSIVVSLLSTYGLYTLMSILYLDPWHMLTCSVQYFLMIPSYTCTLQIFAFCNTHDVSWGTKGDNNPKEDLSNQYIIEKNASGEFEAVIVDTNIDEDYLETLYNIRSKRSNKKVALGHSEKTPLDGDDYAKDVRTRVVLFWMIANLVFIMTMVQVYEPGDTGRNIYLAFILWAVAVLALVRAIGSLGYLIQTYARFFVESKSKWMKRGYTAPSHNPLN
T1 sequence (P14180 whole entry): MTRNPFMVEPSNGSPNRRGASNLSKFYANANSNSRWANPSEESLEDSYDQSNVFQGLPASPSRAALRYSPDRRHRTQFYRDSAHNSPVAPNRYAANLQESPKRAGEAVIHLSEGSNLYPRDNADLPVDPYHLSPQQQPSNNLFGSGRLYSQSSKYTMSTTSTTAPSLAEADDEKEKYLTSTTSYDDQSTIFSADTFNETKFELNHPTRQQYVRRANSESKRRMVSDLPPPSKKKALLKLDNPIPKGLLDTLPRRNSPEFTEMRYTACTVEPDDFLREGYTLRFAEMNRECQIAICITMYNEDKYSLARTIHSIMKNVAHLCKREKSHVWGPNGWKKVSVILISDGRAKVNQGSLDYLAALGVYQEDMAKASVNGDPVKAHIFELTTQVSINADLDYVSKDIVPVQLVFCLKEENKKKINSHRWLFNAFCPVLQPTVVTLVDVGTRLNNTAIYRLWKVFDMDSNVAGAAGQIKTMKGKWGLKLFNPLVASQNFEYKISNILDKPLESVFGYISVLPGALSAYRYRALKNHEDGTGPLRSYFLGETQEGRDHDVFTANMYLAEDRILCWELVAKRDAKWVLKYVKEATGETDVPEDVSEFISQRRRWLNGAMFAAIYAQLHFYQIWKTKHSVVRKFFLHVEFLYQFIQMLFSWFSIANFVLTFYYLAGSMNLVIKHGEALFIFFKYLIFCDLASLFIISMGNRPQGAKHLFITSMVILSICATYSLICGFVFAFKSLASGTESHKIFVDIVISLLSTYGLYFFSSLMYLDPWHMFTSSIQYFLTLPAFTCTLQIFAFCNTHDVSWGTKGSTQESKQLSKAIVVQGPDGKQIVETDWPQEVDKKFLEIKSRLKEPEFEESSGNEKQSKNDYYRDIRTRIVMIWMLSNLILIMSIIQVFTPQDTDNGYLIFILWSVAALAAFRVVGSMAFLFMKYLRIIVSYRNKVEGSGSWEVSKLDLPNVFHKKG

Consider “13-(4-tert-Butylbenzyl)-9-O-(4-isopropylbenzyl)berberrubine chloride [Compound No. 48]”, for which, in assay [1], the “Relative activity Enzyme 2” value is reported as 5 (A compound having the same inhibitory activity as that of polyoxin D at the same concentration was given the value 5). In addition, the “MIC (minimum inhibitory concentration)” value in assay [2] was 1 µg/mL; in assay [3] it was 8 µg/mL; in assay [4] it was 8 µg/mL; in assay [5], 1 µg/mL; in assay [6], 8 µg/mL; in assay [7] it was 4 µg/mL. For the same substance, the “MIC (minimum inhibitory concentration)” value in [8] was found to be 2 µg/mL; in assay [9] it was 8 µg/mL; in assay [10] it was 4 µg/mL; in assay [11], 1 µg/mL; in assay [12], 2 µg/mL; with Candida krusei ATCC 6258, 2 µg/mL. Further, the “Relative activity Enzyme 1” value in assay [13] is 2 (Compounds having the inhibitory activity at 2-fold, 4-fold, 8-fold and 16-fold higher concentrations than that of polyoxin D were given the values of 4, 3, 2 and 1, respectively).

“13-(4-tert-Butylbenzyl)-9-O-(4-tert-butylbenzyl)berberrubine bromide [Compound No. 15]”: the “Relative activity Enzyme 2” value in assay [1] is given as 5 (A compound having the same inhibitory activity as that of polyoxin D at the same concentration was given the value 5). Further, the “MIC (minimum inhibitory concentration)” value in assay [2] stood at 1 µg/mL; in [3], 8 µg/mL; in assay [4], 8 µg/mL; in assay [5], 1 µg/mL; in [6], 8 µg/mL; in [7], 4 µg/mL. Also, the “MIC (minimum inhibitory concentration)” value came out at 2 µg/mL in [8]; 8 µg/mL in assay [9]; 4 µg/mL in [10]; 1 µg/mL in [11]; 4 µg/mL in assay [12]; 4 µg/mL against Candida krusei ATCC 6258. Besides, the “Relative activity Enzyme 1” value in [13] was 3 (Compounds having the inhibitory activity at 2-fold, 4-fold, 8-fold and 16-fold higher concentrations than that of polyoxin D were given the values of 4, 3, 2 and 1, respectively).

For “13-(4-tert-Butylbenzyl)-9-O-(4-tert-butylbenzyl)berberrubine chloride [Compound No. 47]”, the “Relative activity Enzyme 2” value in assay [1] is 5 (A compound having the same inhibitory activity as that of polyoxin D at the same concentration was given the value 5). Besides, the “MIC (minimum inhibitory concentration)” value in assay [2] worked out at 1 µg/mL; in [3], 8 µg/mL; in [4], 8 µg/mL; in [5] it was 1 µg/mL; in assay [6], 8 µg/mL; in assay [7], 4 µg/mL. Further, the “MIC (minimum inhibitory concentration)” value in [8] was determined as 2 µg/mL; in assay [9] it was 8 µg/mL; in assay [10] it was 4 µg/mL; in assay [11] it was 1 µg/mL; in assay [12] it was 4 µg/mL; with Candida krusei ATCC 6258, 4 µg/mL. The “Relative activity Enzyme 1” value in assay [13] was 2 (Compounds having the inhibitory activity at 2-fold, 4-fold, 8-fold and 16-fold higher concentrations than that of polyoxin D were given the values of 4, 3, 2 and 1, respectively).

As for “13-(4-tert-Butylbenzyl)-9-O-(6-chlorohexyl)berberrubine chloride [Compound No. 44]”, in assay [1], the “Relative activity Enzyme 2” value was 6 (compounds having the inhibitory activity at ½, ¼ and ⅛ lower concentrations than that of polyoxin D were given the values of 6, 7 and 8, respectively). Moreover, the “MIC (minimum inhibitory concentration)” value in assay [2] amounted to 0.5 µg/mL; in assay [3], 2 µg/mL; in assay [4], 8 µg/mL; in assay [5], 0.5 µg/mL; in assay [6], 8 µg/mL; in assay [7], 2 µg/mL. In addition, the “MIC (minimum inhibitory concentration)” value in assay [8] stood at 1 µg/mL; in assay [9], 4 µg/mL; in assay [10], 2 µg/mL; in assay [11], 0.5 µg/mL; in assay [12], 2 µg/mL; in the assay with Candida krusei ATCC 6258, 1 µg/mL. For the same substance, in assay [13], the “Relative activity Enzyme 1” value was 2 (Compounds having the inhibitory activity at 2-fold, 4-fold, 8-fold and 16-fold higher concentrations than that of polyoxin D were given the values of 4, 3, 2 and 1, respectively).

For the substance “13-(4-tert-Butylbenzyl)-9-O-(6-chlorohexyl)berberrubine iodide [Compound No. 12]”, the “Relative activity Enzyme 2” value in assay [1] is listed as 5 (A compound having the same inhibitory activity as that of polyoxin D at the same concentration was given the value 5). Further, the “MIC (minimum inhibitory concentration)” value in [2] was found to be 0.5 µg/mL; in assay [3] it was 2 µg/mL; in assay [4], 8 µg/mL; in assay [5] it was 0.5 µg/mL; in [6] it was 8 µg/mL; in assay [7], 2 µg/mL. The “MIC (minimum inhibitory concentration)” value was 1 µg/mL in assay [8]; 4 µg/mL in [9]; 2 µg/mL in [10]; 0.5 µg/mL in [11]; 2 µg/mL in assay [12]; 1 µg/mL in the assay with Candida krusei ATCC 6258. Moreover, the “Relative activity Enzyme 1” value in assay [13] was 2 (Compounds having the inhibitory activity at 2-fold, 4-fold, 8-fold and 16-fold higher concentrations than that of polyoxin D were given the values of 4, 3, 2 and 1, respectively).

For “13-(4-tert-Butylbenzyl)-9-O-allylberberrubine chloride [Compound No. 45]”, in assay [1], the “Relative activity Enzyme 2” value was 6 (compounds having the inhibitory activity at ½, ¼ and ⅛ lower concentrations than that of polyoxin D were given the values of 6, 7 and 8, respectively). In addition, the “MIC (minimum inhibitory concentration)” value stood at 1 µg/mL in [2]; 4 µg/mL in assay [3]; 8 µg/mL in [4]; 1 µg/mL in assay [5]; 8 µg/mL in assay [6]; 2 µg/mL in assay [7]. Also, the “MIC (minimum inhibitory concentration)” value in assay [8] was found to be 2 µg/mL; in assay [9], 4 µg/mL; in [10], 8 µg/mL; in assay [11], 1 µg/mL; in [12], 8 µg/mL; against Candida krusei ATCC 6258 it was 2 µg/mL. In addition, the “Relative activity Enzyme 1” value in assay [13] was 2 (Compounds having the inhibitory activity at 2-fold, 4-fold, 8-fold and 16-fold higher concentrations than that of polyoxin D were given the values of 4, 3, 2 and 1, respectively).

The values above are taken from US7915276B2, “Berberrubine derivatives having antifungal activities” (priority 2006, dated 2011).
